In patent publication EP0320095A2, “Bilirubin degrading enzymes” (HEALTH & RESEARCH SERVICES INC., priority 1987, dated 1989):

Assays:
lime enzyme preparation [1] = test: Effects of common enzyme cofactors on the lime enzyme; format: biochemical, Citrus aurantifolia; conditions: 1 mM final concentration
Experimental: (§1) For the orange enzyme preparation, however, 1mM ATP inhibited the activity by almost 50%.

[2] = system: orange enzyme preparation; test: Effect of common blood components on the orange enzyme reaction; format: biochemical, Citrus sinensis
Experimental: The bilirubin-degrading assay as described under (A) was carried out using an orange enzyme preparation obtained as described in Example 1. […] It is to be noted that the amount of enzyme used for removing interferences can be increased, if desired, to speed up the process. […]

[3] = system: orange enzyme preparation; test: Effects of common enzyme cofactors on the orange enzyme; format: biochemical, Citrus sinensis; conditions: 1mM
Experimental: as §1

lime enzyme preparation [4] = test: Effect of common blood components on the lime enzyme reaction; format: biochemical, Citrus aurantifolia
Experimental: The bilirubin-degrading assay as described in Example 2 was carried out using a lime enzyme preparation obtained as described in Example 1. Urate (at either 1.2 mM or 297 µM) and creatinine (88.4 and 176.8 µM) in a serum-based matrix had no effect on either the rate or extent of bilirubin degradation by the Citrus enzyme. […] Tests that are interfered severely by bilirubin include e.g. uric acid, cholesterol, glucose, triglycerides, to mention just a few (See for example, Spain and Wu, Clin. Chem. 32:518, 1986). Also, in practice, one will use much higher levels of the enzyme than those used here (5-10 µL/assay, representing about 0.1-0.2 mg protein). In such cases, the effects on initial rates will most likely be overcome or reduced to well within tolerable limits.

In the case of Nc1ncnc2c1ncn2[C@@H]1O[C@H](COP(=O)(O)OP(=O)(O)O)[C@@H](O)[C@H]1O [ADP], the “effect on the enzyme in the normal bilirubin-degrading assay” value (shortened to “effect on the enzyme”) (lime enzyme preparation [1]) is reported as “no demonstrable effect”.
With NC(=O)C1=CN([C@@H]2O[C@H](COP(=O)(O)OP(=O)(O)OC[C@H]3O[C@@H](n4cnc5c(N)ncnc54)[C@H](O)[C@@H]3O)[C@@H](O)[C@H]2O)C=CC1 [NADH] the “effect on the enzyme” value (lime enzyme preparation [1]) was “no demonstrable effect”.
With NC(N)=O [urea] the “effect on the reaction of the orange enzyme” value ([2]; water-soluble serum analytes) was “largely unaffected”.
In the case of Nc1ncnc2c1ncn2[C@@H]1O[C@H](COP(=O)(O)OP(=O)(O)OP(=O)(O)O)[C@@H](O)[C@H]1O [ATP], the “effect on the enzyme” value (lime enzyme preparation [1]) is reported as “no demonstrable effect” and the activity inhibited [3] is reported as ~50%.
In the case of Nc1ncnc2c1ncn2[C@@H]1O[C@H](COP(=O)(O)O)[C@@H](O)[C@H]1O [AMP], the “effect on the enzyme” value (lime enzyme preparation [1]) is reported as “no demonstrable effect”.
Oc1nc(O)c2nc(O)[nH]c2n1 [Urate] was tested, and the “effect on the rate or extent of bilirubin degradation” value (lime enzyme preparation [4]; at either 1.2 mM or 297 µM in a serum-based matrix) was “no effect”.
For NC(=O)c1ccc[n+]([C@@H]2O[C@H](COP(=O)([O-])OP(=O)(O)OC[C@H]3O[C@@H](n4cnc5c(N)ncnc54)[C@H](O)[C@@H]3O)[C@@H](O)[C@H]2O)c1 [NAD], the “effect on the enzyme” value (lime enzyme preparation [1]) was “no demonstrable effect”.
For CC(C)CCC[C@@H](C)[C@H]1CC[C@H]2[C@@H]3CC=C4C[C@@H](O)CC[C@]4(C)[C@H]3CC[C@]12C [cholesterol], the “effect on reaction extent” value (lime enzyme preparation [4]; 30-40 min. incubation, serum-like matrix) was “not significantly affected”, the “slow down of the initial rate of the enzymic reaction on unconjugated bilirubin” value (lime enzyme preparation [4]; elevated levels (cholesterol e.g. 11 mM or 400 mg/dL)) was 10-20% and the “overall yield of the enzymic reaction, of the control value” ([2]; elevated cholesterol) was 90-95%. The initial rate retarded ([2]; elevated levels, for example at 10mM) was 10-20%.
